The results in this text go back to patent publication US20160347852A1, “Combination therapy of an anti-CD20 antibody with a Bcl-2 inhibitor and a MDM2 inhibitor” (Hoffmann-La Roche Inc., priority 2015, published 2016).

Test [1] relates to DOHH2 DLBCL xenografts (CD20+, p53 wt). Kind of test: In vivo antitumor efficacy against DOHH2 DLBCL xenografts (Example 1). Conditions: s.c. DOHH-2 xenografts, female SCID beige mice; for TGI % (tumor growth inhibition compared to control): RG7388 30 mg/kg oral, obinutuzumab 10 mg/kg ip once weekly, GDC-0199 100 mg/kg oral, treatment days 13-29. How it is done:
The in vivo antitumor efficacy of the CD20 specific antibody obinutuzumab in combination with bcl-2 inhibitor GDC-0199 and MDM2 inhibitor RG7388 was evaluated against DOHH2 DLBCL xenografts (CD20+, p53 wt). As used herein, obinutuzumab is used synonymously with RO5072759 and B-HH6-B-KV1 GE. As used herein, said bcl-2 inhibitor GDC-0199 is the following chemical compound: 4-(4-{[2-(4-chlorophenyl)-4,4-dimethylcyclohex-1-en-1-yl]methyl}piperazin-1-yl)-2-(1H-pyrrolo[2,3-b]pyridin-5-yloxy)-N-({4-[(tetrahydro-2H-pyran-4-ylmethyl)amino]-3-[(trifluoromethyl)sulfonyl]phenyl}sulfonyl)benzamide or a salt or a polymorphic form thereof. As used herein, said MDM2 inhibitor RG7388 is the following chemical compound 4-{[(2R,3S,4R,5S)-4-(4-Chloro-2-fluoro-phenyl)-3-(3-chloro-2-fluoro-phenyl)-4-cyano-5-(2,2-dimethyl-propyl)-pyrrolidine-2-carbonyl]-amino}-3-methoxy-benzoic acid or a salt or a polymorphic form thereof.
CD20 antibody obinutuzumab was provided as stock solution from Roche, Basel, Switzerland. Antibody buffer included histidine. Antibody solution was diluted appropriately in buffer from stock prior injections. MDM2(4) inhibitor was provided as SDP formulation from Roche, Basel, Switzerland and resuspended prior to use. Bcl-2 inhibitor GDC-0199 was provided by GNE, SSF, USA and formulated prior to use.
The original DOHH-2 human B cell NHL cell line (DLBCL) was established at the NCI and purchased from ATCC (Manassas, Va., USA). Expansion of tumor cells for the transplantation was done by the TAP CompacT CellBase Cell Culture Roboter according to the protocol. Tumor cell line was routinely cultured in RPMI 1640 medium, FCS 10% and L-Glutamin 2 mM at 37° C. in a water-saturated atmosphere at 5% CO2. Culture passage was performed with trypsin/EDTA 1× splitting twice/week and passage 2 used for transplantation.
Female SCID beige mice, age 6-7 weeks at arrival, maintained under specific-pathogen-free condition with daily cycles of 12 h light/12 h darkness according to committed guidelines. Experimental study protocol was reviewed and approved by local government. After arrival animals were maintained in animal facility for one week to get accustomed to new environment and for observation. Continuous health monitoring was carried out on regular basis. Diet food and autoclaved water were provided ad libitum.
Animals were controlled daily for clinical symptoms and detection of adverse effects. For monitoring throughout the experiment body weight of animals was documented.
Animal treatment started after randomisation when median tumor size was about 200 mm^3. CD20 antibody obinutuzumab was administered as single agent and in combination at 10 mg/kg ip once weekly on days 13, 21 and 27. The corresponding vehicle was administered on the same days. MDM2(4) inhibitor RG7388 oral treatment at 30 mg/kg was done as single agent and in combination on days 13-17, 20-24 and 27-29. Finally, bcl-2 inhibitor GDC-0199 was given orally at 100 mg/kg on days 13-29 as single agent and in combination.
DOHH-2 human Diffuse Large B-cell Lymphoma (DLBCL) cells (CD20+, p53 wt) were s.c. inoculated with Matrigel onto female SCID beige mice. Tumor bearing mice were randomized 13 days later to the indicated study groups and compound treatment initiated. Tumor bearing animals were treated with vehicle control, with the MDM2(4) inhibitor RO5503781 (RG7388) at 30 mg/kg, with the anti-CD20 antibody obinutuzumab at 10 mg/kg or with bcl-2 inhibitor GDC-0199 (100 mg/kg) as single agent. Furthermore one study group received the triple combination of MDM2 inhibitor RG7388, CD20 antibody obinutuzumab and bcl-2 inhibitor GDC-0199. […] A similar efficacy was noticed after treatment with the bcl-2 inhibitor GDC-0199 (60% TGI), whereas the best efficacy as single agent was achieved after treatment with the anti-CD20 antibody obinutuzumab reaching nearly tumor stasis (TGI 90%).

In test [2] the test system is human Z138 mantle cell lymphoma cell line. Nature of the test: Antitumor activity of combined treatment, Z138 mantle cell lymphoma xenograft (Example 2). Type of test: in vivo, SCID beige mice. Conditions: for Tumor growth inhibition (TGI) on day 32: SCID beige mice, RO5072759 0.5 mg/kg i.p. q7d, GDC-0199 100 mg/kg p.o. daily, RG7388 100 then 80 mg/kg p.o. daily, day 32 after tumor cell inoculation; for Tumor-free animals on Day 125: number of animals out of 9-10 per group; for Median time to event (Days to reach TV of 1500 mm^3): time-to-event analysis until day 125; for Number of animals with reduced tumor growth or non-responder / Number of animals with tumor regrowth: until day 125. The procedure:
Type II anti-CD20 antibody B-HH6-B-KV1 GE (=humanized B-Ly1, glycoengineered B-HH6-B-KV1, see WO 2005/044859 and WO 2007/031875) was provided as stock solution (c=9.4 mg/ml) from GlycArt, Schlieren, Switzerland, in histidine, trehalose and polysorbate 20 buffer. The antibody was diluted with PBS prior to in-vivo application. The Bcl-2 inhibitor GDC-0199 was obtained from Genentech Inc., CA, USA. MDM2(4) antagonist RG7388 (RO5503781) was provided by the Small Molecule Process Research and Development unit, Hoffmann-La Roche, Basel, Switzerland.
The human Z138 mantle cell lymphoma cell line was cultured in DMEM supplemented with 10% fetal bovine serum (PAA Laboratories, Austria) and 2 mM L-glutamine at 37° C. in a water-saturated atmosphere at 5% CO2. For in-vivo xenograft experiments the cells were co-injected with Matrigel.
Female SCID beige mice, age 4-5 weeks at arrival (purchased from Charles River, Sulzfeld, Germany), were maintained in the quarantine part of the animal facility for one week and afterwards under specific-pathogen-free condition with daily cycles of 12 h light/12 h darkness according to guidelines (GV-Solas; Felasa; TierschG). The experimental study protocol was reviewed and approved by Roche and the local government (Regierung von Oberbayern; registration no. 55.2-1-54-2531.2-26-09). Diet food (KLIBA NAFAG 3807) and water (filtered) were provided ad libitum.
Animals were monitored daily for clinical symptoms and detection of adverse effects. During the experiment the body weight of animals was checked two times a week and tumor volume was measured by caliper.
Animal treatment started at the day of randomization 18 days after tumor cell inoculation. Humanized type II anti-CD20 antibody RO5072759 B-HH6-B-KV1 GE (obinutuzumab) was administered as single agent i.p. q7d once weekly (day 18, 25, 32) for 3 weeks at a dosage of 0.5 mg/kg. The bcl-2 inhibitor GDC-0199 was given p.o. once daily (from day 18 to day 36) over 19 days at a dosage of 100 mg/kg. The MDM2 antagonist RG7388 (RO5503781) was given p.o. once daily over 5 days at a dosage of 100 mg/kg (active compound) from day 18 to day 22 and was administered over 12 days at a dosage of 80 mg/kg (active compound) from day 25 to day 36. There was no treatment on day 23 and 24. In the combination groups, RO5072759 B-HH6-B-KV1 GE, MDM2(4) and GDC-0199 were administered at the same dosages and on the same days. The corresponding vehicle was administered on the same days.
To elucidate the long term effects of the various treatments a time-to-event analysis was performed until day 125 after tumor cell inoculation.

Take `CC1(C)CCC(CN2CCN(c3ccc(C(=O)NS(=O)(=O)c4ccc(NCC5CCOCC5)c([N+](=O)[O-])c4)c(Oc4cnc5[nH]ccc5c4)c3)CC2)=C(c2ccc(Cl)cc2)C1` [GDC-0199, 4-(4-{[2-(4-chlorophenyl)-4,4-dimethylcyclohex-1-en-1-yl]methyl}piperazin-1-yl)-N-({3-nitro-4-[(tetrahydro-2H-pyran-4-ylmethyl)amino]phenyl}sulfonyl)-2-(1H-pyrrolo[2,3-b]pyridin-5-yloxy)benzamide, reference compound]: in test [1], the npTCR is 0.43 and the “TGI % (tumor growth inhibition compared to control)” value is given as 60%. In test [2], the “Tumor growth inhibition (TGI) on day 32” value is recorded as 53%, the “Tumor-free animals on Day 125” value was determined as 0, the “Median time to event (Days to reach TV of 1500 mm^3)” value (“Median time to event” below) is 29 days and the “Number of animals with reduced tumor growth or non-responder” value is 10. Further, in test [2], the “Number of animals with tumor regrowth” value came to 0.

In the case of `COc1cc(C(=O)O)ccc1NC(=O)[C@@H]1N[C@@H](CC(C)(C)C)[C@](C#N)(c2ccc(Cl)cc2F)[C@H]1c1cccc(Cl)c1F` [RG7388, 4-{[(2R,3S,4R,5S)-4-(4-Chloro-2-fluoro-phenyl)-3-(3-chloro-2-fluoro-phenyl)-4-cyano-5-(2,2-dimethyl-propyl)-pyrrolidine-2-carbonyl]-amino}-3-methoxy-benzoic acid], in test [1], the npTCR is listed as 0.48 and the “TGI % (tumor growth inhibition compared to control)” value worked out at 56%. For the same compound, in test [2], the “Tumor growth inhibition (TGI) on day 32” value is recorded as 67%, the “Tumor-free animals on Day 125” value amounted to 0, the “Median time to event” value was 30 days and the “Number of animals with reduced tumor growth or non-responder” value came to 9. Besides, the “Number of animals with tumor regrowth” value in test [2] is listed as 0.

As to “obinutuzumab: afucosylated glyco-engineered humanized B-Ly1 type II anti-CD20 IgG1 antibody, VH SEQ ID NO:7 (B-HH6), VL SEQ ID NO:20 (B-KV1)”, in test [1], the npTCR worked out at 0.17 and the “TGI % (tumor growth inhibition compared to control)” value is listed as 90%. Further, in test [2], the “Tumor growth inhibition (TGI) on day 32” value was determined as 47%, the “Tumor-free animals on Day 125” value was determined as 2, the “Median time to event” value came out at 28 days and the “Number of animals with reduced tumor growth or non-responder” value was found to be 8. Besides, in test [2], the “Number of animals with tumor regrowth” value is 0.
